Measured values taken from PubChem BioAssay AID2060348 (Molecular Pharmacology Branch, DTP, NCI, 2025).
pIC50: −log10 of the molar value.

System: 885724-159-R-J1-PDC spheroids viability
Experiment: Anticancer human tumor 885724-159-R-J1-PDC patient-derived pancreatic adenocarcinoma cell line growth inhibition [TAK]
Details: spheroids with HUVEC and MSC; for pIC50: curve of first compound; for viability, T/C: stronger effect = lower value
Excerpt: Combinatorial screen of targeted agents with TAK-243 and ipatasertib in multi-cell type tumor spheroids
A high-throughput screen of multi-cell type tumor spheroids was designed to identify active combinations of targeted small molecules and TAK-243 or ipatasertib. Complex spheroids include a stromal component modeled by human endothelial cells (HUVEC) and fibroblasts modeled by human mesenchymal stem cells (MSCs). The concentration ranges selected for each drug and investigational agent were based upon clinically achievable concentrations if the clinical Cmax of the agent was known.
Compounds. The drugs and investigational agents: TAK-243 (785004), ipatasertib (767898), everolimus (733504), selumetinib (741078), bortezomib (756655), trametinib (758246), ixazomib (758254), vemurafenib (761431), dabrafenib (764134), sapanisertib (764658), alpelisib (765974), and copanlisib (816437), were obtained from the National Cancer Institute (NCI) Developmental Therapeutics Program Chemical Repository. The FDA-approved anticancer drug set is available from the NCI Developmental Therapeutics Program. […] The stock solutions were prepared in dimethyl sulfoxide (DMSO, Sigma-Aldrich, St. Louis, MO, cat. D2650) at 800-fold the tested concentration and stored at -70 degrees C prior to their use. All drugs and investigational agents were tested over a range starting from a high concentration at or near the clinical Cmax and decreasing in half-log increments. If the clinical Cmax for an agent had not been determined, the highest concentration tested was 10 microM.
NCI60 Cell Culture. NCI60 cell lines were obtained from the NCI Developmental Therapeutics Program Tumor Repository. For each lot of cells, the Repository performed Applied Biosystems AmpFLSTR Identifiler testing with PCR amplification to confirm consistency with the published Identifier STR profile for each cell line. Cells were kept in continuous culture for no more than 20 passages. The optimal seeding densities for each of the cell lines at each time point assessed were determined prior to performing the concentration response studies. Briefly, the NCI60 human tumor lines were grown as monolayers in RPMI 1640 medium supplemented with 10% FBS and 2 mmol/L L-glutamine.
An additional 2 lines were from the NCI60 cell line panel including melanomas, MALME-3M and SK-MEL-2. Pooled donor human umbilical vein endothelial cells (HUVEC, Lonza, cat. CC-2519) and human mesenchymal stem cells (hMSC, Lonza, cat. PT-2501) were purchased from Lonza (Walkersville, MD).
PDMR cell lines were grown in complete medium (DC medium): Dulbecco's modified Eagle's medium (DMEM)/F12 supplemented with 5% fetal bovine serum (FBS), 2 mM L-glutamine, 100 U/mL penicillin and 100 µg/ml streptomycin, 0.4 µg/ml hydrocortisone, 10 ng/ml epidermal growth factor (EGF) recombinant human protein, 24 µg/mL adenine, and 0.1 mg/mL primocin. During culture from frozen stock vials, PDMR cells were cultured in the same medium containing 10 µM Y-27632 (see Table 3). The PDCs were cultured in complete DMEM/F12 media without 10 microM Y-27632 dihydrochloride for at least two passages prior to the screen. The pooled donor HUVEC and hMSC were cultured in endothelial cell growth medium 2 (PromoCell, Heidelberg, Germany, cat. C-22011) and mesenchymal stem cell growth medium 2 (PromoCell, cat. C-28009), respectively. For all experiments, HUVEC and hMSC were used at passages </=5.
For the pre-screen, cell seeding densities were determined from a titration spanning the range from 5,000 to 313 cells per well. The mct-spheroids including 60% malignant cells, 25% HUVEC and 15% MSC dispensed as a mixture into U-bottom Ultra-Low Attachment 384-well plates (Corning, NY)
High-throughput Drug Combination Screening.
Prior to their inoculation into 384-well plates, malignant cells, HUVEC, and hMSC were removed from T flasks using TrypLE express (Thermo Fisher Scientific, cat. 12605036) and harvested by centrifugation for 5 min at 233 x g. […]
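Further: spheroids exposed to drugs for seven days.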
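Wherever viability, T/C is given: 100% = DMSO vehicle control viability.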

CC(C)CC(NC(=O)C(Cc1ccccc1)NC(=O)c1cnccn1)B(O)O (stereo not given) + CC(C)NCC(C(=O)N1CCN(c2ncnc3c2C(C)CC3O)CC1)c1ccc(Cl)cc1
pIC50 (second compound 0.3 µM): 8.46
pIC50 (second compound 0.949 µM): 8.84
pIC50 (second compound 3 µM): 8.89
pIC50 (second compound 9.49 µM): 9.24
pIC50 (second compound 30 µM): > 10.50
viability, T/C (second compound 0.3 µM, first compound 31.6 pM): 77.5%
viability, T/C (second compound 0.3 µM, first compound 0.0001 µM): 68.6%
viability, T/C (second compound 0.3 µM, first compound 0.000316 µM): 68.7%
viability, T/C (second compound 0.3 µM, first compound 0.001 µM): 68.1%
viability, T/C (second compound 0.3 µM, first compound 0.00316 µM): 55%
viability, T/C (second compound 0.3 µM, first compound 0.01 µM): 0.97%
viability, T/C (second compound 0.949 µM, first compound 31.6 pM): 60.3%
viability, T/C (second compound 0.949 µM, first compound 0.0001 µM): 64.1%
viability, T/C (second compound 0.949 µM, first compound 0.000316 µM): 59%
viability, T/C (second compound 0.949 µM, first compound 0.001 µM): 65.8%
viability, T/C (second compound 0.949 µM, first compound 0.00316 µM): 23.7%
viability, T/C (second compound 0.949 µM, first compound 0.01 µM): 1.29%
viability, T/C (second compound 3 µM, first compound 31.6 pM): 58.1%
viability, T/C (second compound 3 µM, first compound 0.0001 µM): 58.9%
viability, T/C (second compound 3 µM, first compound 0.000316 µM): 58.7%
viability, T/C (second compound 3 µM, first compound 0.001 µM): 57.9%
viability, T/C (second compound 3 µM, first compound 0.00316 µM): 20.6%
viability, T/C (second compound 3 µM, first compound 0.01 µM): 0.95%
viability, T/C (second compound 9.49 µM, first compound 31.6 pM): 48.1%
viability, T/C (second compound 9.49 µM, first compound 0.0001 µM): 54.8%
viability, T/C (second compound 9.49 µM, first compound 0.000316 µM): 50.5%
viability, T/C (second compound 9.49 µM, first compound 0.001 µM): 49%
viability, T/C (second compound 9.49 µM, first compound 0.00316 µM): 21.1%
viability, T/C (second compound 9.49 µM, first compound 0.01 µM): 0.94%
viability, T/C (second compound 30 µM, first compound 31.6 pM): 31%
viability, T/C (second compound 30 µM, first compound 0.0001 µM): 38.5%
viability, T/C (second compound 30 µM, first compound 0.000316 µM): 33.7%
viability, T/C (second compound 30 µM, first compound 0.001 µM): 34.5%
viability, T/C (second compound 30 µM, first compound 0.00316 µM): 14.8%
viability, T/C (second compound 30 µM, first compound 0.01 µM): 0.56%

Cn1cnc2c(F)c(Nc3ccc(Br)cc3Cl)c(C(=O)NOCCO)cc21 + CC(C)NCC(C(=O)N1CCN(c2ncnc3c2C(C)CC3O)CC1)c1ccc(Cl)cc1
pIC50 (second compound 0.3 µM): > 8.02
pIC50 (second compound 0.949 µM): > 8.02
pIC50 (second compound 3 µM): > 8.02
pIC50 (second compound 9.49 µM): > 8.02
pIC50 (second compound 30 µM): > 8.02
viability, T/C (second compound 0.3 µM, first compound 0.00949 µM): 49.1%
viability, T/C (second compound 0.3 µM, first compound 0.03 µM): 42.5%
viability, T/C (second compound 0.3 µM, first compound 0.0949 µM): 29.3%
viability, T/C (second compound 0.3 µM, first compound 0.3 µM): 24.9%
viability, T/C (second compound 0.3 µM, first compound 0.949 µM): 18.8%
viability, T/C (second compound 0.3 µM, first compound 3 µM): 14.1%
viability, T/C (second compound 0.949 µM, first compound 0.00949 µM): 45.2%
viability, T/C (second compound 0.949 µM, first compound 0.03 µM): 41.2%
viability, T/C (second compound 0.949 µM, first compound 0.0949 µM): 30.5%
viability, T/C (second compound 0.949 µM, first compound 0.3 µM): 22.6%
viability, T/C (second compound 0.949 µM, first compound 0.949 µM): 16.6%
viability, T/C (second compound 0.949 µM, first compound 3 µM): 10.3%
viability, T/C (second compound 3 µM, first compound 0.00949 µM): 42%
viability, T/C (second compound 3 µM, first compound 0.03 µM): 37.1%
viability, T/C (second compound 3 µM, first compound 0.0949 µM): 27.5%
viability, T/C (second compound 3 µM, first compound 0.3 µM): 18.7%
viability, T/C (second compound 3 µM, first compound 0.949 µM): 12.6%
viability, T/C (second compound 3 µM, first compound 3 µM): 7.23%
viability, T/C (second compound 9.49 µM, first compound 0.00949 µM): 36.7%
viability, T/C (second compound 9.49 µM, first compound 0.03 µM): 27.9%
viability, T/C (second compound 9.49 µM, first compound 0.0949 µM): 16.8%
viability, T/C (second compound 9.49 µM, first compound 0.3 µM): 13.7%
viability, T/C (second compound 9.49 µM, first compound 0.949 µM): 9.53%
viability, T/C (second compound 9.49 µM, first compound 3 µM): 4.7%
viability, T/C (second compound 30 µM, first compound 0.00949 µM): 20.5%
viability, T/C (second compound 30 µM, first compound 0.03 µM): 13.7%
viability, T/C (second compound 30 µM, first compound 0.0949 µM): 9.15%
viability, T/C (second compound 30 µM, first compound 0.3 µM): 5.41%
viability, T/C (second compound 30 µM, first compound 0.949 µM): 3.69%
viability, T/C (second compound 30 µM, first compound 3 µM): 2.03%
